Results: patent publication US20200115357A1, “LIVER X RECEPTORS (LXR) MODULATORS” (Phenex-FXR GmbH, priority 2017, published 2020)

Biological target: T1, LXRα full length (FL) (Homo sapiens, UniProt Q13133)
T1 construct: the full length (FL) proteins of LXRα (amino acids 1-447); NP005684; expressed in transfected cells; host or cells: HEK293
T1 sequence (Q13133 1-447): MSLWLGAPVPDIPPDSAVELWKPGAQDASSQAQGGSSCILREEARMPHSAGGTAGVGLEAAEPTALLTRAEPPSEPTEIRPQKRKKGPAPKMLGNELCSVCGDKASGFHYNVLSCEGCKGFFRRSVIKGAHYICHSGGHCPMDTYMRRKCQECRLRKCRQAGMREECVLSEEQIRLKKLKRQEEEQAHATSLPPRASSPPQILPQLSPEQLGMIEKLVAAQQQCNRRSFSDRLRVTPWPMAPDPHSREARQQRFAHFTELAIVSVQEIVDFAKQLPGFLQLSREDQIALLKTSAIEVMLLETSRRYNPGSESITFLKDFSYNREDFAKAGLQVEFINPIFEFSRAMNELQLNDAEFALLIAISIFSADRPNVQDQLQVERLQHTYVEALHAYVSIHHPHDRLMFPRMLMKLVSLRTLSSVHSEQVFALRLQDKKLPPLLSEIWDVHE
Experiment: LXR Gal4 reporter transient transfection assay (M2H), Gal4α FL
Format: cell-based
Conditions: HEK293 cells; read-out: M2H Gal4α FL activity range (EC50)
Procedure, shortened: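 Mammalian two-hybrid in HEK293 cells transiently transfected with LXRα/β full-length or LBD fused to NFkB activation domain, plus GAL4-DBD fusions of SRC1 coactivator or NCoR corepressor domains and a GAL4-responsive firefly luciferase reporter. Compounds added 4 h post-transfection (vehicle ≤0.2% DMSO), 16 h incubation; firefly luciferase normalized to Renilla.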

Compound	EC50
Cc1ccc2ccccc2c1S(=O)(=O)N(Cc1ccc(-c2cccc(S(=O)(=O)CC(=O)O)c2)cc1)Cc1cccc(C(F)(F)F)c1 [11/19]	100 to 1000 nM
Cc1cc(C)c(S(=O)(=O)N(Cc2ccc(-c3cccc(S(=O)(=O)CC(=O)O)c3)cc2)Cc2ccc(C(F)(F)F)o2)c(C)c1 [Example 5, 2-((4′-(((2,4,6-Trimethyl-N-((5-(trifluoromethyl)furan-2-yl)methyl)phenyl)sulfonamido)methyl)-[1,1′-biphenyl]-3-yl)sulfonyl)acetic acid]	1000 to 10000 nM
Cc1cc(C)c(S(=O)(=O)N(Cc2ccc(-c3cccc(S(=O)(=O)C(C)(C)C(=O)O)c3)cc2)Cc2ccc(C(F)(F)F)o2)c(C)c1 [5/2]	100 to 1000 nM
Cc1cc(C)c(S(=O)(=O)N(Cc2ccc(-c3cc(F)c(CO)c(S(C)(=O)=O)c3)cc2)Cc2ccc(C(F)(F)F)o2)c(C)c1 [Example C3/2]	< 100 nM
Cc1cc(C)c(S(=O)(=O)N(Cc2ccc(C(F)(F)F)o2)Cc2ccc(-c3cccc(C(C)(C)C(=O)O)c3)cc2Cl)c(C)c1 [10/5]	< 100 nM

Continued, values first:

EC50	Compound
< 100 nM	Cc1ccc2ccccc2c1S(=O)(=O)N(Cc1ccc(-c2cccc(C(C)(C)C(=O)O)c2)cc1)Cc1ccc(C(F)(F)F)o1 [Example 24, 2-Methyl-2-(4′-(((2-methyl-N-((5-(trifluoromethyl)furan-2-yl)methyl)naphthalene)-1-sulfonamido)methyl)-[1,1′-biphenyl]-3-yl)propanoic acid]
< 100 nM	Cc1cc(C)c(S(=O)(=O)N(Cc2ccc(-c3cccc(CC(=O)O)c3)cc2)C(C)c2ccc(C(F)(F)F)o2)c(C)c1 (stereo not drawn) [2/2]
< 100 nM	Cc1cc(C)c(S(=O)(=O)N(Cc2ccc(-c3cccc(CC(=O)O)c3)cc2)Cc2ccc(C(F)(F)F)o2)c(C)c1 [Example 2, 2-(4′-(((2,4,6-Trimethyl-N-((5-(trifluoromethyl)furan-2-yl)methyl)phenyl)sulfonamido)methyl)-[1,1′-biphenyl]-3-yl)acetic acid]
< 100 nM	COc1cc(-c2cccc(C(C)(C)C(=O)O)c2)ccc1CN(Cc1ccc(C(F)(F)F)o1)S(=O)(=O)c1c(C)cc(C)cc1C [10/4]
< 100 nM	Cc1cc(C)c(S(=O)(=O)N(Cc2ccc(-c3cccc(C(C)(C)C(=O)O)c3)cc2)Cc2ccc(C(F)(F)F)o2)c(C)c1 [7/5]

Tested on: Srebp1c
Experiment: Short term HFD mouse model, gene expression in liver tissue: Srebp1c
Format: in vivo
Conditions: liver mRNA (qPCR, normalized to Tbp), three oral doses of 20 mg/kg, HFD mice
Experimental: Short Term HFD Mouse Model:
The in vivo transcriptional regulation of several LXR target genes by LXR modulators was assessed in mice.
For this, C57BL/6J were purchased from Elevage Janvier (Rennes, France) at the age of 8 weeks. After an acclimation period of two weeks, animals were preferred on a high fat diet (HFD) (Ssniff Spezialdiaten GmbH, Germany, Surwit EF D12330 mod, Cat. No. E15771-34), with 60 kcal % from fat plus 1% (w/w) extra cholesterol (Sigma-Aldrich, St. Louis, Mo.) for 5 days. Animals were maintained on this diet during treatment with LXR modulators. […]
Upon termination, liver was collected, dipped in ice cold PBS for 30 seconds and cut into appropriate pieces. […] For the clinical chemistry analysis from plasma, alanine aminotransferase (ALT, IU/mL), cholesterol (CHOL, mg/dL) and triglycerides (TG, mg/dL) were determined using a fully-automated bench top analyzer (Respons®910, DiaSys Greiner GmbH, Flacht, Germany) with system kits provided by the manufacturer. […]
To obtain total RNA from frozen liver tissue, samples (25 mg liver tissue) were first homogenized with RLA buffer (4M guanidin thiocyanate, 10 mM Tris, 0.97% w:v β-mercapto-ethanol). […] Quantitative PCR was performed and analyzed using Prime time Gene expression master mix (Integrated DNA Technologies, Coralville, Iowa, USA) and a 384-format ABI 7900HT Sequence Detection System (Applied Biosystems, Foster City, USA). […]

Compound	Srebp1c suppression compared to vehicle
Cc1ccc2ccccc2c1S(=O)(=O)N(Cc1ccc(-c2cccc(C(C)(C)C(=O)O)c2)cc1)Cc1ccc(C(F)(F)F)o1 [Example 24, 2-Methyl-2-(4′-(((2-methyl-N-((5-(trifluoromethyl)furan-2-yl)methyl)naphthalene)-1-sulfonamido)methyl)-[1,1′-biphenyl]-3-yl)propanoic acid]	0.25
Cc1cc(C)c(S(=O)(=O)N(Cc2ccc(C(F)(F)F)o2)Cc2ccc(-c3cccc(C(C)(C)C(=O)O)c3)cc2Cl)c(C)c1 [10/5]	0.33
